Reference: patent US20160193216A1 (Nimbus Iris, Inc., priority 2012, published 2016)
Read-outs that look alike come from different tables or passages of the source.

Key:
IRAK4 = biological target: T1, IRAK4 (Homo sapiens, UniProt Q9NWZ3); test: IRAK-4 activity inhibition assay (Caliper); format: biochemical; conditions: 37 μM ATP, 3.5 nM IRAK4
T1 sequence (Q9NWZ3 1-460): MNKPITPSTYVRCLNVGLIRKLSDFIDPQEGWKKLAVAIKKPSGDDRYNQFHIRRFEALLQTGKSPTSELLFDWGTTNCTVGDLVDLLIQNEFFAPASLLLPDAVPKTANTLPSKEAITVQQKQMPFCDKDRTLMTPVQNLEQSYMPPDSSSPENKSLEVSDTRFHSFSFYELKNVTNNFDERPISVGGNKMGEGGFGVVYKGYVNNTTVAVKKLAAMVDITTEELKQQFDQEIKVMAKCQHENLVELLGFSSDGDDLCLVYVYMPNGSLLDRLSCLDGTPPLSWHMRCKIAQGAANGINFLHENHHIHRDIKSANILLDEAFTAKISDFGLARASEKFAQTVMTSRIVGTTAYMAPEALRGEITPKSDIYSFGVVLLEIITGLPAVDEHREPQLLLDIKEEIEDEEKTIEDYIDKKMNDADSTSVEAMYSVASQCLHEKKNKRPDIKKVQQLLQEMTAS

THP-1 cells = test: LPS induced cytokine (TNFα and IL8) production assay in THP-1 cells; format: cell-based; conditions: Homo sapiens, 300 ng/mL LPS
In short: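 THP-1 cells (100,000/well) pre-incubated 1 hour with compound in 0.3% DMSO, then stimulated with 300 ng/mL LPS. TNFα and IL8 in supernatant measured by HTRF at 5 hours; IL8 and viability also at 16 hours.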

hPBMC = test: In vitro LPS/R848/CpG/IL-1β-induced cytokine production assay in hPBMC; format: cell-based; conditions: Homo sapiens
Description: (§1) In Vitro LPS/R848/CpG-Induced Cytokine Production Assays in hPBMC or Whole Blood
(§2) Compounds of the present invention were also studied in in vitro LPS/R848/CpG-induced cytokine production assays. Exemplary protocols follow.
(§3) […] Cells were seeded in a 96-well plate with 130 ul/well of the cell suspension according to the plate map. 9 ul of 30 mM compound solution was added into the wells in the assigned rows, then serial solutions with 4× dilutions were made. That is, add 9 uL of 100% DMSO into each of the rest wells and take 3 uL of compound solution from the one-step higher concentration solution and mix well with the DMSO. For the second compound master plate, 196 uL of the growth medium (no serum media) were added into each of the wells and 4 uL of the compound solution from the first compound master plate was added and mixed with the media. Cells were treated for 0.5 h by adding 20 uL of the compound and the control solutions prepared in the second master plate to each well according to the plate map. […] Plates were sealed with sealing films and the plates were centrifuged at 3000 rpm at 4 degrees C. for 5 min. The supernatants were transferred, and 100 ul of working Capture antibody solution was added to each well. The plates were sealed and incubated overnight at RT. IL-6, IFN-α or TNF-α detection antibody labeled with biotin: Added 100 uL of the Detection Antibody solution to each well. Covered the plate and incubated for 2 h at RT. Added 100 uL of Streptavidin-HRP solution to each well. Covered the plate and incubate for 20 min at RT in dark. Added 100 uL of Substrate Solution to each well. Incubated for 20 min at RT in dark. Added 50 uL of Stop Solution to each well. Gently tapped the plate to ensure thorough mixing. Determined the optical density of each well immediately, using a microplate reader set to 450 nm and also read at 540 nm or 570 nm for correction if wavelength correction is not available.

Whole Blood = test: In vitro LPS/R848-induced cytokine production assay in whole blood; format: cell-based, human
Description: as §1, §2, §3

ABC DLBCL Cells = test: sensitization of ABC DLBCL cells to IRAK inhibitors by BTK knockdown; format: cell-based; conditions: BTK knockdown (FIG. 9)
Source text: FIG. 8 depicts the sensitization of ABC DLBCL Cells to IRAK Inhibitors by BTK knockdown.

[1] = system: collagen-induced arthritis; test: In vivo murine collagen-induced arthritis model; conditions: DBA mice, intraperitoneally 30 mg/kg twice a day, vs vehicle
Description: In Vivo Murine Collagen-Induced Arthritis Model Compounds of the present invention were also evaluated in mice in an in vivo efficacy model for inhibiting IRAK4-mediated arthritis. An exemplary protocol for this assay follows. Male DBA mice were immunized with collagen on day 0 and day 21 and randomly enrolled into groups upon onset of disease. […] Eight mice were enrolled per group with the exception of the naïve control group, which contained four mice. Day 1 was designated as the first treatment day, and mice were evaluated daily for clinical scores until day 11. The mice were weighed on alternating days.

ABC DLBCL cell lines = test: Cell viability assay, combination with ibrutinib; format: cell-based
Description: Compounds of the present invention were also evaluated in a cell viability assay.

GCB DLBCL Cells = test: sensitization of GCB DLBCL cells by BTK knockdown; format: cell-based; conditions: BTK knockdown (FIG. 10)
OCI-Ly10 cells = test: In vivo murine xenograft tumor model of human ABC DLBCL lymphoma; conditions: NOD/SCID mice
Description: In Vivo Murine Tumor Model of Human ABC DLBCL Lymphoma
Compounds of the present invention were also evaluated in a xenograft tumor model of human ABC DLBCL lymphoma first described and disclosed in Staudt et al. (2012). The tumor was established by subcutaneous injection of OCI-Ly10 cells into immunodeficient (NOD/SCID) mice. […] Tumor growth was monitored by measuring tumor size in two orthogonal directions. The tumor volume was calculated by using the formula (1/2)(long dimension)×(short dimension)^2.

[2] = LPS 0.01 ug/mL, read-out: IL-6 production IC50
[3] = LPS 0.01 ug/mL, read-out: TNF-α production IC50
[4] = Homo sapiens, LPS 0.1 ug/mL, read-out: IL-6 production IC50
[5] = Homo sapiens, LPS 0.1 ug/mL, read-out: TNF-α production IC50
[6] = R848 1 uM, read-out: TNF-α production IC50
[7] = Homo sapiens, R848 1 uM, read-out: IFN-α production IC50

Compound: CN[C@H]1CC[C@H](Oc2ncnc3sc4c(c23)[C@@H](CC(N)=O)CC4)CC1 [Compound I-79, 2-[(3R)-12-[[4-(methylamino)cyclohexyl]oxy]-7-thia-9,11-diazatricyclo[6.4.0.0̂[2,6]]dodeca-1(8),2(6),9,11-tetraen-3-yl]acetamide]
- IC50 (IRAK4): < 5 µM
- IC50 (THP-1 cells; read-out: IL8 production IC50): 500 to 1000 nM
- IC50 (THP-1 cells; read-out: TNFα production IC50): 1000 to 5000 nM
- IC50 (hPBMC; [2]): ≥ 1000 nM
- IC50 (hPBMC; [3]): ≥ 1000 nM
- IC50 (Whole Blood; [4]): ≥ 1000 nM
- IC50 (Whole Blood; [5]): ≥ 1000 nM

Compound: NC(=O)[C@@H](O)C[C@H]1CCc2sc3ncnc(O[C@H]4CC[C@H](N5CCOCC5)CC4)c3c21 [Compound I-92, (S)-2-hydroxy-3-((R)-4-(((1r,4R)-4-morpholinocyclohexyl)oxy)-6,7-dihydro-5H-cyclopenta[4,5]thieno[2,3-d]pyrimidin-5-yl)propanamide]
- sensitization of ABC DLBCL Cells to compound by BTK knockdown (ABC DLBCL Cells): sensitization
- Clinical scores, collagen-induced arthritis [1]: efficacious compared to the vehicle
- Killing of ABC DLBCL cells in combination with ibrutinib (ABC DLBCL cell lines): Synergistic killing
- IC50 (THP-1 cells; read-out: IL8 production IC50): ≤ 500 nM
- IC50 (THP-1 cells; read-out: TNFα production IC50): ≤ 500 nM
- IC50 (hPBMC; CpG 0.1 uM, read-out: IFN-α production IC50): 250 to 500 nM
- IC50 (hPBMC; CpG 0.5 uM, read-out: TNF-α production IC50): ≤ 250 nM
- IC50 (hPBMC; IL-1β 1 ng/mL, read-out: IL-6 production IC50): ≤ 250 nM
- IC50 (hPBMC; [2]): ≤ 250 nM
- IC50 (hPBMC; [3]): ≤ 250 nM
- IC50 (hPBMC; [6]): ≤ 250 nM
- sensitization of GCB DLBCL Cells to compound by BTK Knockdown (GCB DLBCL Cells): lack of sensitization
- ABC lymphoma growth (tumor volume) (OCI-Ly10 cells): reduces ABC lymphoma growth
- Tolerability in the animals (OCI-Ly10 cells): well tolerated
- IC50 (Whole Blood; [4]): ≤ 250 nM
- IC50 (Whole Blood; [5]): 500 to 1000 nM
- IC50 (Whole Blood; [7]): 500 to 1000 nM
- IC50 (Whole Blood; [6]): 500 to 1000 nM

Compound: NC(=O)[C@H]1CCc2sc3ncnc(O[C@H]4CC[C@H](N5CCOCC5)CC4)c3c2C1 [Compound I-220, (12S)-3-[[4-(morpholin-4-yl)cyclohexyl]oxy]-8-thia-4,6-diazatricyclo[7.4.0.0[2,7]]trideca-1(9),2(7),3,5-tetraene-12-carboxamide]
- IC50 (IRAK4): < 5 µM
- IC50 (THP-1 cells; read-out: IL8 production IC50): ≤ 500 nM
- IC50 (THP-1 cells; read-out: TNFα production IC50): ≤ 500 nM
- IC50 (Whole Blood; [5]): ≥ 1000 nM
- IC50 (Whole Blood; [7]): ≥ 1000 nM
- IC50 (Whole Blood; [6]): ≥ 1000 nM

Compound: CN(C)[C@H]1CC[C@H](Oc2ncnc3sc4c(c23)C[C@@H](C(N)=O)CC4)CC1 [Compound I-233, (12S)-3-[[4-(dimethylamino)cyclohexyl]oxy]-8-thia-4,6-diazatricyclo[7.4.0.0[2,7]]trideca-1(9),2(7),3,5-tetraene-12-carboxamide]
- IC50 (IRAK4): < 5 µM
- IC50 (THP-1 cells; read-out: IL8 production IC50): ≤ 500 nM
- IC50 (THP-1 cells; read-out: TNFα production IC50): ≤ 500 nM
- IC50 (Whole Blood; [5]): ≥ 1000 nM
- IC50 (Whole Blood; [7]): ≥ 1000 nM
- IC50 (Whole Blood; [6]): ≥ 1000 nM
